From publication PMC10655120, “Highly efficient synergistic activity of an α-L-arabinofuranosidase for degradation of arabinoxylan in barley/wheat” (Frontiers in Microbiology, 2023) come the findings set out here.

The target of the assay is T1, TtAbf62 (Thermothelomyces thermophilus, UniProt G2QJQ6).
T1 construct: gene MYCTH_55982; GH62; 321 residues with signal peptide MRPTRPGIVLLATATSVAG (1-19), replaced by alpha-factor signal (strain alpha-ABF); codon-optimized, secreted by Pichia pastoris X-33 (pPICZalphaA); N-glycosylated, 45-60 kDa (35 kDa deglycosylated); no purification described
As to the kind of experiment: HPLC of released arabinose. The assay is classed as biochemical. The following applies: 5 mg/mL substrate, 7.7 U/mL secreted enzyme, 50 mM sodium acetate pH 5.0, 60 °C, 1 h.

SMILES strings stand for the structures.

T1 sequence (G2QJQ6 20-321): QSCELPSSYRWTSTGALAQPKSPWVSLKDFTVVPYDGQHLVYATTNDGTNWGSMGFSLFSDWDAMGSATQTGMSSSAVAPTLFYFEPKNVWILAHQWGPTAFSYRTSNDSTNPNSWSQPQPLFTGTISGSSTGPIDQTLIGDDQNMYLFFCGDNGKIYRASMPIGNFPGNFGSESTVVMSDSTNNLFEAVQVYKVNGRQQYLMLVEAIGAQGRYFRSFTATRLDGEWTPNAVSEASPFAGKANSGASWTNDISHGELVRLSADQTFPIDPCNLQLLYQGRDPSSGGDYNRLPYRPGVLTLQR

As for `OC[C@@H]1O[C@@H](O[C@H]2[C@H](O[C@@H]3CO[C@@H](O[C@@H]4COC(O)[C@H](O)[C@H]4O)[C@H](O)[C@H]3O)OC[C@@H](O)[C@@H]2O)[C@H](O)[C@H]1O` (stereo partly drawn) [A^2XX, 2^3-α-L-arabinofuranosyl-xylotriose], the “HPLC of released arabinose” value was “able to release arabinose from single-arabinofuranosyl arabinoxylo-oligosaccharides substrates (A^3X, A^2XX, and XA^3XX)”.

On to `OC[C@@H]1O[C@@H](O[C@@H]2[C@@H](O)[C@H](O[C@@H]3COC(O)[C@H](O)[C@H]3O)OC[C@H]2O)[C@H](O)[C@H]1O` (stereo partly drawn) [A^3X, 3^2-α-L-arabinofuranosyl-xylobiose], for which the “HPLC of released arabinose” value is “able to release arabinose from single-arabinofuranosyl arabinoxylo-oligosaccharides substrates (A^3X, A^2XX, and XA^3XX)”.
